Where two headings read alike, the source gives them in different places.
Legend:
HIV-1 strain 92HT599 = assay: Antiviral activity against HIV-1 strain 92HT599 in MT2 cells (p24 estimation); format: cell-based
Method: MT2 cells were infected with HIV-1 strain 92HT599 (10 TCID 50/30000 cells). The infected cells were plated at the concentration of ˜30,000 cells per well in 96 well plate. Test compound was added to the micro plate in defined format with the final concentration of DMSO (vehicle) is not more than 1%. Incubation was carried out in CO2 incubator for ˜96 hours for viral infection. At the end of incubation period an aliquot from each well was taken for p24 estimation. The quantitation of p24 is an index for antiviral activity of the compound. Percent inhibition was calculated with reference to control values (vehicle controls). p24 estimation was carried out using Advance biosciences kit as per the procedure detailed by supplier.
The IC50 (nM) values are set forth in below Table-1.

pNL4-3 V7A = assay: Antiviral activity against pNL4-3 V7A strain in MT4 cells (p24 estimation); format: cell-based, HIV-1; conditions: Human immunodeficiency virus 1, MT4, 96 h, read-out: pNL4-3 V7A IC50
Method: (§1) MT4 cells were Transfected with HIV-1 Plasmid (pNL4-3-WT & V7A) (Cells were incubating with required number of TCID50 of HIV-1 for 1.5 h at 37° C.). After infection, the infected cells were plated at the concentration of 3×10^4 cells per well in 96 well plate. Test compound was added to the test plate in defined format with the final concentration of DMSO is not more than 1%. Incubation was carried out in CO2 incubator for 4 days for viral infection. At the end of incubation period an aliquot from each well was taken for p24 estimation. p24 estimation was carried out using Advance biosciences kit as per the procedure detailed by supplier.

pNL4-3 WT = assay: Antiviral activity against pNL4-3 WT strain in MT4 cells (p24 estimation); format: cell-based, HIV-1; conditions: Human immunodeficiency virus 1, MT4, 96 h, read-out: pNL4-3 WT IC50
Method: as §1

[1] = Human immunodeficiency virus 1, HIV-1 strain 92HT599, MT2 cells, ~96 hours, p24, read-out: IC50

SMILES | IC50 (HIV-1 strain 92HT599; [1]) | IC50 (pNL4-3 V7A) | IC50 (pNL4-3 WT) | IC50 (HIV-1 strain 92HT599; Human immunodeficiency virus 1, MT2, 96 h)
CC1([C@@H]2CC[C@]3(NCC(C)(C)N4CCS(=O)(=O)CC4)CC[C@]4(C)[C@H](CC[C@@H]5[C@@]6(C)CC[C@H](OC(=O)[C@H]7C[C@@H](C(=O)O)C7(C)C)C(C)(C)[C@@H]6CC[C@]54C)[C@@H]23)CC1 [Example 1, (1R,3S)-3-((((1R,3aS,5aR,5bR,7aR,9S,11aR,11bR,13aR,13bR)-3a-((2-(1,1-dioxidothiomorpholino)-2-methylpropyl)amino)-5a,5b,8,8,11a-pentamethyl-1-(1-methylcyclopropyl)icosahydro-1H-cyclopentachrysen-9-yl)oxy)carbonyl)-2,2-dimethyl cyclobutane-1-carboxylic acid] | > 20 nM | > 100 nM | > 50 nM | 
C[C@@H](CN[C@]12CC[C@@H](C3(C)CC3)[C@@H]1[C@H]1CC[C@@H]3[C@@]4(C)CC[C@H](OC(=O)[C@H]5C[C@@H](C(=O)O)C5(C)C)C(C)(C)[C@@H]4CC[C@@]3(C)[C@]1(C)CC2)N1CCS(=O)(=O)CC1 [Example 2, (1R,3S)-3-((((1R,3aS,5aR,5bR,7aR,9S,11aR,11bR,13aR,13bR)-3a-(((S)-2-(1,1-dioxidothiomorpholino)propyl)amino)-5a,5b,8,8,11a-pentamethyl-1-(1-methylcyclopropyl)icosahydro-1H-cyclopentachrysen-9-yl)oxy)carbonyl)-2,2-dimethyl cyclobutane-1-carboxylic acid] | < 10 nM | 1 to 50 nM | < 10 nM | 
CC(C)[C@H](CN[C@]12CC[C@@H](C3(C)CC3)[C@@H]1[C@H]1CC[C@@H]3[C@@]4(C)CC[C@H](OC(=O)[C@H]5C[C@@H](C(=O)O)C5(C)C)C(C)(C)[C@@H]4CC[C@@]3(C)[C@]1(C)CC2)N1CCS(=O)(=O)CC1 [Example 3, (1R,3S)-3-((((1R,3aS,5aR,5bR,7aR,9S,11aR,11bR,13aR,13bR)-3a-(((R)-2-(1,1-dioxidothiomorpholino)-3-methylbutyl)amino)-5a,5b,8,8,11a-pentamethyl-1-(1-methylcyclopropyl)icosahydro-1H-cyclopenta[a]chrysen-9-yl)oxy)carbonyl)-2,2-dimethyl cyclobutane-1-carboxylic acid] | > 20 nM | > 100 nM | > 50 nM | 
CC1([C@@H]2CC[C@]3(NC[C@H](CO[Si](C)(C)C(C)(C)C)N4CCS(=O)(=O)CC4)CC[C@]4(C)[C@H](CC[C@@H]5[C@@]6(C)CC[C@H](OC(=O)[C@H]7C[C@@H](C(=O)O)C7(C)C)C(C)(C)[C@@H]6CC[C@]54C)[C@@H]23)CC1 [Example 4, (1R,3S)-3-((((1R,3aS,5aR,5bR,7aR,9S,11aR,11bR,13aR,13bR)-3a-(((R)-3-((tert-butyldimethylsilyl)oxy)-2-(1,1-dioxidothiomorpholino)propyl)amino)-5a,5b, 8,8,11a-pentamethyl-1-(1-methylcyclopropyl)icosahydro-1H-cyclopenta[a]chrysen-9-yl)oxy)carbonyl)-2,2-dimethylcyclobutane-1-carboxylic acid] |  | > 100 nM | > 50 nM | 10 to 20 nM
CC1([C@@H]2CC[C@]3(NC[C@H](CO)N4CCS(=O)(=O)CC4)CC[C@]4(C)[C@H](CC[C@@H]5[C@@]6(C)CC[C@H](OC(=O)[C@H]7C[C@@H](C(=O)O)C7(C)C)C(C)(C)[C@@H]6CC[C@]54C)[C@@H]23)CC1 [Example 5, (1R,3S)-3-((((1R,3aS,5aR,5bR,7aR,9S,11aR,11bR,13aR,13bR)-3a-(((R)-2-(1,1-dioxidothiomorpholino)-3-hydroxypropyl)amino)-5a,5b,8,8,11a-pentamethyl-1-(1-methylcyclopropyl)icosahydro-1H-cyclopenta[a]chrysen-9-yl)oxy)carbonyl)-2,2-dimethylcyclobutane-1-carboxylic acid] | < 10 nM | 1 to 50 nM | < 10 nM | 
CC(C)[C@@H](CN[C@]12CC[C@@H](C3(C)CC3)[C@@H]1[C@H]1CC[C@@H]3[C@@]4(C)CC[C@H](OC(=O)[C@H]5C[C@@H](C(=O)O)C5(C)C)C(C)(C)[C@@H]4CC[C@@]3(C)[C@]1(C)CC2)N1CCS(=O)(=O)CC1 [Example 6, (1R,3S)-3-((((1R,3aS,5aR,5bR,7aR,9S,11aR,11bR,13aR,13bR)-3a-(((S)-2-(1,1-dioxidothiomorpholino)-3-methylbutyl)amino)-5a,5b,8,8,11a-pentamethyl-1-(1-methylcyclopropyl)icosahydro-1H-cyclopentachrysen-9-yl)oxy)carbonyl)-2,2-dimethylcyclobutane-1-carboxylic acid] | < 10 nM | 1 to 50 nM | 10 to 50 nM | 
C[C@@H](O)[C@@H](CN[C@]12CC[C@@H](C3(C)CC3)[C@@H]1[C@H]1CC[C@@H]3[C@@]4(C)CC[C@H](OC(=O)[C@H]5C[C@@H](C(=O)O)C5(C)C)C(C)(C)[C@@H]4CC[C@@]3(C)[C@]1(C)CC2)N1CCS(=O)(=O)CC1 [Example 7, (1R,3S)-3-((((1R,3aS,5aR,5bR,7aR,9S,11aR,11bR,13aR,13bR)-3a-(((2R,3R)-2-(1,1-dioxidothiomorpholino)-3-hydroxybutyl)amino)-5a,5b,8,8,11a-pentamethyl-1-(1-methylcyclopropyl)icosahydro-1H-cyclopentachrysen-9-yl)oxy)carbonyl)-2,2-dimethylcyclobutane-1-carboxylic acid] | < 10 nM | 1 to 50 nM | < 10 nM | 
CC1([C@@H]2CC[C@]3(NC[C@@H](CO)N4CCS(=O)(=O)CC4)CC[C@]4(C)[C@H](CC[C@@H]5[C@@]6(C)CC[C@H](OC(=O)[C@H]7C[C@@H](C(=O)O)C7(C)C)C(C)(C)[C@@H]6CC[C@]54C)[C@@H]23)CC1 [Example 8, (1R,3S)-3-((((1R,3aS,5aR,5bR,7aR,9S,11aR,11bR,13aR,13bR)-3a-(((S)-2-(1,1-dioxidothiomorpholino)-3-hydroxypropyl)amino)-5a,5b,8,8,11a-pentamethyl-1-(1-methylcyclopropyl)icosahydro-1H-cyclopenta[a]chrysen-9-yl)oxy)carbonyl)-2,2-dimethylcyclobutane-1-carboxylic acid] | < 10 nM | 1 to 50 nM | < 10 nM | 
CC1([C@@H]2CC[C@]3(NC[C@@H](CF)N4CCS(=O)(=O)CC4)CC[C@]4(C)[C@H](CC[C@@H]5[C@@]6(C)CC[C@H](OC(=O)[C@H]7C[C@@H](C(=O)O)C7(C)C)C(C)(C)[C@@H]6CC[C@]54C)[C@@H]23)CC1 [Example 9, (1R,3S)-3-((((1R,3aS,5aR,5bR,7aR,9S,11aR,11bR,13aR,13bR)-3a-(((S)-2-(1,1-dioxidothiomorpholino)-3-fluoropropyl)amino)-5a,5b,8,8,11a-pentamethyl-1-(1-methylcyclopropyl)icosahydro-1H-cyclopentachrysen-9-yl)oxy)carbonyl)-2,2-dimethyl cyclobutane-1-carboxylic acid] | < 10 nM | 50 to 100 nM | 10 to 50 nM | 
CC1([C@@H]2CC[C@]3(NC[C@H](CF)N4CCS(=O)(=O)CC4)CC[C@]4(C)[C@H](CC[C@@H]5[C@@]6(C)CC[C@H](OC(=O)[C@H]7C[C@@H](C(=O)O)C7(C)C)C(C)(C)[C@@H]6CC[C@]54C)[C@@H]23)CC1 [Example 10, (1R,3S)-3-((((1R,3aS,5aR,5bR,7aR,9S,11aR,11bR,13aR,13bR)-3a-(((R)-2-(1,1-dioxidothiomorpholino)-3-fluoropropyl)amino)-5a,5b,8,8,11a-pentamethyl-1-(1-methylcyclopropyl)icosahydro-1H-cyclopenta[a]chrysen-9-yl)oxy)carbonyl)-2,2-dimethyl cyclobutane-1-carboxylic acid] | < 10 nM | 1 to 50 nM | < 10 nM | 
CC(C)S(=O)(=O)N1CCN([C@@H](C)CN[C@]23CC[C@@H](C4(C)CC4)[C@@H]2[C@H]2CC[C@@H]4[C@@]5(C)CC[C@H](OC(=O)[C@H]6C[C@@H](C(=O)O)C6(C)C)C(C)(C)[C@@H]5CC[C@@]4(C)[C@]2(C)CC3)CC1 [Example 11, (1R,3S)-3-((((1R,3aS,5aR,5bR,7aR,9S,11aR,11bR,13aR,13bR)-3a-(((S)-2-(4-(isopropylsulfonyl)piperazin-1-yl)propyl)amino)-5a,5b,8,8,11a-pentamethyl-1-(1-methylcyclopropyl)icosahydro-1H-cyclopenta[a]chrysen-9-yl)oxy)carbonyl)-2,2-dimethyl cyclobutane-1-carboxylic acid] | < 10 nM | 1 to 50 nM | < 10 nM | 

— patent publication US12275712B2, “Triterpene derivatives as HIV inhibitors” (HETERO LABS LIMITED, priority 2019, dated 2025)
